Laboratory results taken from publication PMC9037358 (RSC Advances, 2021).

Legend:
[1] = test system: MCF-7; experiment: MTT cytotoxicity assay; type: cell-based; details: Homo sapiens, MCF7, 48 h, read-out: Cytotoxicity IC50 μM ± S.D. MCF-7
[2] = MTT cytotoxicity assay, normal breast cell line; type: cell-based, human; details: human, MCF 10A normal breast cells
[3] = test system: MDA-MB-231; experiment: MTT cytotoxicity assay; type: cell-based; details: Homo sapiens, MDA-MB-231, 48 h, read-out: Cytotoxicity IC50 μM ± S.D. MDA-MB-231
[4] = test system: S. typhimurium; experiment: Anti-biofilm activity; type: cell-based; details: 50 μg mL^−1
[5] = test system: P. vulgaris; experiment: Anti-biofilm activity; type: cell-based; details: 50 μg mL^−1
[6] = test system: MCF 10A; experiment: MTT cytotoxicity assay, normal breast cell line; type: cell-based, human; details: both breast cancer cell lines vs MCF-10A
[7] = test system: Staphylococcus aureus NRRL B-767; experiment: Antimicrobial activity; type: cell-based; details: 50 μg mL^−1, NA: not active
[8] = test system: MDA-MB-231; experiment: Cellular uptake assay; type: cell-based, human; details: HPLC
[9] = molecular target: carbonic anhydrase II (Homo sapiens, UniProt P00918); experiment: In vitro carbonic anhydrase II enzyme inhibition; type: biochemical
[10] = test system: Salmonella typhimurium; experiment: Antimicrobial activity; type: cell-based; details: 50 μg mL^−1; NA: not active
[11] = molecular target: carbonic anhydrase IX (Homo sapiens, UniProt Q16790); experiment: In vitro carbonic anhydrase IX enzyme inhibition; type: biochemical
[12] = test system: Proteus vulgaris; experiment: Antimicrobial activity; type: cell-based; details: 24 h, read-out: inhibition ratio% P. vulgaris
[13] = test system: K. pneumonia; experiment: Anti-biofilm activity; type: cell-based; details: 50 μg mL^−1
[14] = test system: Escherichia coli ATCC 25955; experiment: Antimicrobial activity; type: cell-based; details: 50 μg mL^−1; NA: not active
[15] = test system: MDA-MB-231; experiment: Annexin V-FITC apoptosis assay; type: cell-based, human
[16] = test system: S. aureus; experiment: Anti-biofilm activity; type: cell-based; details: 50 μg mL^−1
[17] = test system: MDA-MB-231; experiment: Cell cycle analysis; type: cell-based, human; details: compared to positive control
[18] = test system: E. coli; experiment: Anti-biofilm activity; type: cell-based; details: 50 μg mL^−1
[19] = test system: Klebsiella pneumonia; experiment: Antimicrobial activity; type: cell-based; details: 50 μg mL^−1; NA: not active
[20] = test system: Candida albicans ATCC 10231; experiment: Antimicrobial activity; type: cell-based; details: 50 μg mL^−1; NA: not active
[21] = test system: P. aeruginosa; experiment: Anti-biofilm activity; type: cell-based; details: 50 μg mL^−1
[22] = test system: S. flexenari; details: cited from earlier work
[23] = test system: E. coli; details: cited from earlier work
[24] = test system: CA IX; details: read-out: CA IX IC50; as reported; cited from earlier work

| Compound | IC50 [1] | IC50 at 48 h [2] | IC50 [3] | Biofilm inhibition ratio% P. vulgaris [5] | inhibition ratio% S. aureus [7] | inhibition ratio% S. typhimurium [10] | inhibition of growth at 50 µg/mL [12] | Biofilm inhibition ratio% K. pneumonia [13] | Biofilm inhibition ratio% S. aureus [16] | Biofilm inhibition ratio% E. coli [18] | also measured |
| --- | --- | --- | --- | --- | --- | --- | --- | --- | --- | --- | --- |
| COc1ccc(/C=C2/SC(Nc3ccc(S(N)(=O)=O)cc3)=NC2=O)cc1 [Compound 4c, (E)-4-(5-(4-Methoxybenzylidene)-4-oxo-4,5-dihydrothiazol-2-ylamino)benzenesulfonamide] | 3.67 ± 0.1 µM | 22.7 ± 0.8 µM | 6.31 ± 0.2 µM |  |  |  |  |  |  |  |  |
| NS(=O)(=O)c1ccc(NC2=NC(=O)/C(=C\c3ccc(Cl)cc3)S2)cc1 [Compound 4d, (E)-4-(5-(4-Chlorobenzylidene)-4-oxo-4,5-dihydrothiazol-2-ylamino)benzenesulfonamide] | 15.5 ± 0.6 µM | 22.9 ± 0.8 µM | 1.88 ± 0.1 µM |  |  |  |  |  |  |  |  |
| C=CCc1cc(/C=C2/SC(Nc3ccc(S(N)(=O)=O)cc3)=NC2=O)c(O)c(OC)c1 [Compound 4e, (E)-4-(5-(5-Allyl-2-hydroxy-3-methoxybenzylidene)-4-oxo-4,5-dihydrothiazol-2-ylamino)benzenesulfonamide] | 4.58 ± 1.8 µM | 19.4 ± 0.7 µM | 3.58 ± 0.1 µM | 61.41% | 80.69% | 75.09% | 42% | 18.60% | 45.92% | 15.47% | Biofilm inhibition ratio% S. typhimurium [4]: 63.43%; selectivity to breast cancer cell lines over MCF-10A [6]: 5.5 times; level of compound taken up into MDA-MB-231 cell line [8]: 12500 ng/mL; IC50 [9]: 3.92 µM; IC50 ([11]; CA IX IC50 (nM)±S.D.): 10.9 nM; IC50 ([11]; CA IX IC50 (μM)): 11 nM; inhibition ratio% E. coli [14]: 60.66%; necrosis phase ([15]; upper left quadrant): 16.65%; annexin V-FITC-positive cells, late apoptotic phase ([15]; upper right quadrant): 22.04%; arrest in the S phase [17]: 1.4 fold; increase in the percentage of cells at pre-G1 [17]: 22 fold; inhibition ratio% K. pneumonia [19]: 62.89% |
| C[C@@H]1[C@H](O)[C@@H](C)/C=C/C=C/CC/C=C/C=C/C=C/C=C/C(O[C@H]2O[C@H](C)[C@@H](O)[C@H](N)[C@@H]2O)CC2O[C@](O)(CC(O)C(O)CCC(O)CC(O)CC(O)CC(=O)O[C@H]1C)CC(O)C2C(=O)O (stereo partly shown) [Nys, nystatin, reference compound] |  |  |  |  |  |  |  |  |  |  | inhibition ratio% C. albicans [20]: 99.21% |
| NS(=O)(=O)c1ccc(NC2=NC(=O)/C(=C\c3ccc(O)cc3)S2)cc1 [Compound 4b, (E)-4-(5-(4-Hydroxybenzylidene)-4-oxo-4,5-dihydrothiazol-2-ylamino)benzenesulfonamide] | 3.63 ± 0.1 µM | 17.8 ± 0.6 µM | 14.6 ± 0.6 µM | 16.85% |  |  |  | 78.29% | 53.06% | 18.78% | Biofilm inhibition ratio% P. aeruginosa [21]: 45.51%; inhibition ratio% C. albicans [20]: 8.87% |
| C[C@@H](O)[C@H]1C(=O)N2C(C(=O)O)=C(SCCN=CN)C[C@H]12 [imipenem] |  |  |  |  |  |  |  |  |  |  | zone inhibition (ZI) S. flexenari [22]: 27 mm; zone inhibition (ZI) E. coli [23]: 30 mm |
| COc1cc(/C=C2/SC(Nc3ccc(S(N)(=O)=O)cc3)=NC2=O)cc(OC)c1OC [Compound 4i, (E)-4-(4-oxo-5-(3,4,5-Trimethoxybenzylidene)-4,5-dihydrothiazol-2-ylamino)benzenesulfonamide] | 4.05 ± 0.2 µM | 14.2 ± 0.5 µM | 16.3 ± 0.6 µM | 7.61% |  |  |  | 5.43% | 22.55% | 49.72% | Biofilm inhibition ratio% S. typhimurium [4]: 22.86% |
| NS(=O)(=O)c1ccc(NC2=NC(=O)/C(=C\c3ccc(C(=O)O)cc3)S2)cc1 [Compound 4f, (E)-4-((4-oxo-2-(4-Sulfamoylphenylamino)thiazol-5(4H)-ylidene)methyl)benzoic acid] | 36 ± 1.4 µM | 30.3 ± 1.1 µM | 17.2 ± 0.7 µM | 64.67% | 57.93% | 45.72% | 3.39% | 10.08% | 21.43% | 19.89% | Biofilm inhibition ratio% S. typhimurium [4]: 36.57%; inhibition ratio% E. coli [14]: 46.45%; inhibition ratio% K. pneumonia [19]: 26.80% |
| COc1cc(/C=C2/SC(Nc3ccc(S(N)(=O)=O)cc3)=NC2=O)ccc1O [Compound 4h, (E)-4-(5-(4-Hydroxy-3-methoxybenzylidene)-4-oxo-4,5-dihydrothiazol-2-ylamino)benzenesulfonamide] | 1.52 ± 0.1 µM | 26.1 ± 1.1 µM | 1.56 ± 0.1 µM | 50.54% | 68.30% | 59.11% | 19.1% | 77.52% | 19.39% | 19.89% | Biofilm inhibition ratio% S. typhimurium [4]: 66.86%; selectivity to breast cancer cell lines over MCF-10A [6]: 17.5 times; level of compound taken up into MDA-MB-231 cell line [8]: 17070 ng/mL; IC50 [9]: 2.19 µM; IC50 ([11]; CA IX IC50 (nM)±S.D.): 25.6 nM; IC50 ([11]; CA IX IC50 (μM)): 26 nM; inhibition ratio% E. coli [14]: 29.51%; Biofilm inhibition ratio% P. aeruginosa [21]: 35.96%; inhibition ratio% K. pneumonia [19]: 33.51% |
| O=C(O)c1cn(C2CC2)c2cc(N3CCNCC3)c(F)cc2c1=O [Cip, ciprofloxacin, reference compound] |  |  |  |  | 99.25% | 99.56% | 99.8% |  |  |  | inhibition ratio% S. aureus ([7]; listed as CIP): 99.2%; inhibition ratio% E. coli [14]: 99.1%; inhibition ratio% K. pneumonia [19]: 99.7% |
| CN(C)c1ccc(/C=C2/SC(Nc3ccc(S(N)(=O)=O)cc3)=NC2=O)cc1 [Compound 4j, (E)-4-(5-(4-(Dimethylamino)benzylidene)-4-oxo-4,5-dihydrothiazol-2-ylamino)benzenesulfonamide] | 26.6 ± 1 µM | 13.1 ± 0.5 µM | 10.1 ± 0.4 µM |  |  |  | 5.08% |  |  |  |  |
| NS(=O)(=O)c1ccc(NC2=NC(=O)/C(=C\c3ccccc3)S2)cc1 [Compound 4a, (E)-4-(5-Benzylidene-4-oxo-4,5-dihydrothiazol-2-ylamino)benzenesulfonamide] | 9.63 ± 0.4 µM | 24.2 ± 0.9 µM | 12.8 ± 0.5 µM |  |  |  |  |  |  |  |  |
| NS(=O)(=O)c1ccc(NC2=NC(=O)/C(=C\c3ccc([N+](=O)[O-])cc3)S2)cc1 [Compound 4g, (E)-4-(5-(4-Nitrobenzylidene)-4-oxo-4,5-dihydrothiazol-2-ylamino)benzenesulfonamide] | 2.55 ± 0.1 µM | 47.9 ± 1.7 µM | 5.54 ± 0.2 µM |  | 69.74% | 60.97% | 23.3% | 79.46% | 35.24% |  | selectivity to breast cancer cell lines over MCF-10A [6]: 8.5 times; IC50 [9]: 1.55 µM; IC50 ([11]; CA IX IC50 (nM)±S.D.): 17 nM; IC50 ([11]; CA IX IC50 (μM)): 17 nM |
